Assay [1] concerns the target T1, Probable nicotinate-nucleotide adenylyltransferase (Staphylococcus aureus (strain N315), UniProt P65502). It counts as functional, Staphylococcus aureus subsp. aureus N315.
Assay [2] has as its target T1, Probable nicotinate-nucleotide adenylyltransferase. It counts as functional, Staphylococcus aureus subsp. aureus N315. To be noted: read-out: IC50_Mean.
The next assay deals with T2, Caspase-3 (Homo sapiens, UniProt P42574).
T2 sequence (P42574 whole entry): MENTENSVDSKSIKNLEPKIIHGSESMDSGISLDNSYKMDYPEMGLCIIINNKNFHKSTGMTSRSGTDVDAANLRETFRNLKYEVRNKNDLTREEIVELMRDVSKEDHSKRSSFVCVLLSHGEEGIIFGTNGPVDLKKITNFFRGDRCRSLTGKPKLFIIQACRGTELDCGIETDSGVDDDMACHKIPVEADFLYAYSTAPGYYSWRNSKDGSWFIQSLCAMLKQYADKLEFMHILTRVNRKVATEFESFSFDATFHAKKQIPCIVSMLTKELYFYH
It counts as functional.

Assay [3] concerns the target T3, Sentrin-specific protease 7 (Homo sapiens, UniProt Q9BQF6).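 Further: Luminescence-based dose-response confirmation of ultra-high-throughput screening hits, measuring inhibition of SENP7.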
T3 sequence (Q9BQF6 whole entry): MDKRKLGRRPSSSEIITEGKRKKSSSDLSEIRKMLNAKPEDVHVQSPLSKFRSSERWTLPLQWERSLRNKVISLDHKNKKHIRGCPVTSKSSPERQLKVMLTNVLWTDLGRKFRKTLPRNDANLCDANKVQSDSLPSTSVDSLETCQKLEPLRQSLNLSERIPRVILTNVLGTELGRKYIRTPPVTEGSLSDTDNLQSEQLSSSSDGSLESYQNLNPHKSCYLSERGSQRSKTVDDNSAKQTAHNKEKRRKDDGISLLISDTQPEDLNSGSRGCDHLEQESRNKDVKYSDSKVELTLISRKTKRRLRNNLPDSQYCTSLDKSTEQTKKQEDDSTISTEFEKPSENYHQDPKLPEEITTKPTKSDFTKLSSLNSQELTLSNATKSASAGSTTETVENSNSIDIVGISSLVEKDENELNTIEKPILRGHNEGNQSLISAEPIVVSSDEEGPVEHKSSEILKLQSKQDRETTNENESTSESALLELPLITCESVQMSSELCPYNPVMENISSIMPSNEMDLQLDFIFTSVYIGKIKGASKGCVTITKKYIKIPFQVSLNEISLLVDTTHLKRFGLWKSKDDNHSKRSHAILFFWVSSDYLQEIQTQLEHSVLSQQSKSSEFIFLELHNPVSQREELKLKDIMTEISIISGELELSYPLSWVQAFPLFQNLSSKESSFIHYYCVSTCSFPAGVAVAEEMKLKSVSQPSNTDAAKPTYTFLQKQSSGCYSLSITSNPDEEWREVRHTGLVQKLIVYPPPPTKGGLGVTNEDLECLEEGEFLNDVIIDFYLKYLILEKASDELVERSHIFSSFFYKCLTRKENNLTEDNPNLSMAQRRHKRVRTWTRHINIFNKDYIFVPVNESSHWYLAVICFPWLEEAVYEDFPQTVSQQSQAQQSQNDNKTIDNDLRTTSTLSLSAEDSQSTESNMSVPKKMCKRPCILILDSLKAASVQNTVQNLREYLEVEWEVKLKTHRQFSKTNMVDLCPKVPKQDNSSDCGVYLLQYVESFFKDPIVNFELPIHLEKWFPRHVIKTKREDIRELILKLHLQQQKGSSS
In kind it is functional.

Assay [4] has as its target T4, Sentrin-specific protease 6 (Homo sapiens, UniProt Q9GZR1).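 Further: Luminescence-based dose-response confirmatory assay of SENP6 inhibition, following up an ultra-high-throughput screen.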
T4 sequence (Q9GZR1 whole entry): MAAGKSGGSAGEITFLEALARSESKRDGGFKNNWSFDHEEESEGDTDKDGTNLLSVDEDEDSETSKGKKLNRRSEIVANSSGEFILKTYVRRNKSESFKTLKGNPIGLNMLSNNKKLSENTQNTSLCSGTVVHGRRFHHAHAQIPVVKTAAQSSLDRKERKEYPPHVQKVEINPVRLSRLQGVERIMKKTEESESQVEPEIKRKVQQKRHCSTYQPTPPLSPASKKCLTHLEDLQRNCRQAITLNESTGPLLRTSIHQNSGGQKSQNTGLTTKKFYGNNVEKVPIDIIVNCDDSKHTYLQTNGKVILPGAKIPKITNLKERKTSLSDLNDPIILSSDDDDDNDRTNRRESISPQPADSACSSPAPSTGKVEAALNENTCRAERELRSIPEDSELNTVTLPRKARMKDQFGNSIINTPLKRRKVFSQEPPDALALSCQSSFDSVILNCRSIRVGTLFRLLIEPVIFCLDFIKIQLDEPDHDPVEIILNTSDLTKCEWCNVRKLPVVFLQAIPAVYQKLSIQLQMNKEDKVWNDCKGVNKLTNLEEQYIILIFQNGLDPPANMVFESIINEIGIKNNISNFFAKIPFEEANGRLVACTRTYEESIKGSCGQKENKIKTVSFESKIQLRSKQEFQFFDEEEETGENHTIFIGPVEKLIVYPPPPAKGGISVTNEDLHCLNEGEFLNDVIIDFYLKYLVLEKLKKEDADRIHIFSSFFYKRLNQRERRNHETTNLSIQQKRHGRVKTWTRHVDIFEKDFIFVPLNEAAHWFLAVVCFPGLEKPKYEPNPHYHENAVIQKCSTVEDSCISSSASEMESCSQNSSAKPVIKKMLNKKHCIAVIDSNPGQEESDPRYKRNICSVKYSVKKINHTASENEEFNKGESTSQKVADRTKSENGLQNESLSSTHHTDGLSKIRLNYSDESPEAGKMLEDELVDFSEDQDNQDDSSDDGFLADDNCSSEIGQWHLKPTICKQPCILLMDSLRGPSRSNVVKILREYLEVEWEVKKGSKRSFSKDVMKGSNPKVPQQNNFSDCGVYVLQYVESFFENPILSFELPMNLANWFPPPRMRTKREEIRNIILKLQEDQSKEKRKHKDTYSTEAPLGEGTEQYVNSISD
It counts as functional.

Assay [5] concerns the target T5, Sentrin-specific protease 8 (Homo sapiens, UniProt Q96LD8).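 Further: luminescence read-out of SENP8 inhibition, dose-response confirmation following an ultra-high-throughput screen.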
T5 sequence (Q96LD8 whole entry): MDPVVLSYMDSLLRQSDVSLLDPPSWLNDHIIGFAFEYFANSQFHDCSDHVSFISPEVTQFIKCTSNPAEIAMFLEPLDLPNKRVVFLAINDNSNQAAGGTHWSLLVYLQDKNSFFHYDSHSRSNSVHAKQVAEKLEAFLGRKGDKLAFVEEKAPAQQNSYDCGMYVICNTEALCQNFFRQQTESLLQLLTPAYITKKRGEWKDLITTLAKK
In kind it is functional.

Assay [6] in a line: Shn3 3'UTR reporter inhibitors, dose response, cell-based, Clone20 osteoblasts, firefly luciferase, cherry-picked (AID 624132).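 Further: firefly luciferase luminescence from reporter carrying the Shn3 3'UTR in osteoblasts.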 In kind it is functional.
A short description of assay [7]: HepG2 cell cytotoxicity, dose response, cytotoxicity control for Shn3 inhibitor project, CellTiter-Glo, cherry-picked (AID 624134). In kind it is functional, cell-based. On the technique in general: In ATP-based viability assays light output follows the ATP content of the culture.
The nature of assay [8]: control 3'UTR Renilla luciferase suppression, dose response, counter-screen for Shn3 inhibitor project, cell-based, Clone20-Shn3RL, cherry-picked (AID 624133). In kind it is functional.
A short description of assay [9]: microbe, parasite or virus in culture. It counts as functional. The following applies: Mycobacterium tuberculosis.
Assay [10] can be described thus: inhibitors of firefly luciferase expression or activity, dose response, H4 neuroglioma cells, luminescence (AID 1990). It counts as functional, cell-based.
Assay [11] in a line: Luminescence Cell-Based Dose Response HTS to Identify Inhibitors of 5'UTR Stem-Loop Driven Prion Protein mRNA Translation in H4 Neuroglioblastoma Cells. [Related pubchem assays: 1827 (Project Summary), 1813 (Primary HTS)]. In kind it is functional.
For assay [12], the target named is T6, Heat shock factor protein 1 (Mus musculus, UniProt P38532).
T6 sequence (P38532 whole entry): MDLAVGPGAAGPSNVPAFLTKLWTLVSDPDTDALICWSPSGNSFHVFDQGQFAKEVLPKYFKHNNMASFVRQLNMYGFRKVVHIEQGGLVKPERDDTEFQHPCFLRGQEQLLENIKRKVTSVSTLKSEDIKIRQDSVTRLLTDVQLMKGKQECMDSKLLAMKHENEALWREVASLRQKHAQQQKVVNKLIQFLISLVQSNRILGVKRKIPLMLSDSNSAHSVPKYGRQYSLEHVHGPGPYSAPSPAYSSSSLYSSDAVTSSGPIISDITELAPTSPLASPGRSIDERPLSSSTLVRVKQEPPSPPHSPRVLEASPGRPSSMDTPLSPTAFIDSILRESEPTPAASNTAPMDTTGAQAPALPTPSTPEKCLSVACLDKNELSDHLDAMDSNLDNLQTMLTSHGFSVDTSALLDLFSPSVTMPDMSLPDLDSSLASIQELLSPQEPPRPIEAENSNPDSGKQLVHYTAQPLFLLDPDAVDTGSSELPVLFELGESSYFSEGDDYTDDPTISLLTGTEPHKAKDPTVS
Nature of the assay: inhibition of MG132-induced HSE-luciferase signal, confirmation, cell-based, NIH3T3, luminescence, dose retest (AID 2382).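 Further: NIH3T3 fibroblasts with HSF1-driven luciferase reporter stressed by proteasome inhibitor MG132; luminescence from HSF1-driven luciferase expression after 8 hours of MG132 stress.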 It counts as functional.

Assay [13] can be described thus: inhibitors of SNCA 5'UTR-driven reporter translation, confirmation, H4 neuroglioma cells, luminescence (AID 1988). It counts as functional, cell-based.
Assay [14] concerns the target Luciferin 4-monooxygenase (Photinus pyralis, UniProt P08659). Nature of the assay: firefly luciferase enzyme inhibitors, dose response, biochemical, luminescence (AID 1891).
Assay [15] is described as follows: Luminescence Cell-Based Dose Confirmation HTS to Identify Inhibitors of Platelet Dense Granule Release. [Related pubchem assays: 1663 (Primary HTS), 1678 (Summary of Project)]. It counts as functional.
For the next assay, the target named is T7, Protein skinhead-1 (Caenorhabditis elegans, UniProt P34707).
T7 sequence (P34707 whole entry): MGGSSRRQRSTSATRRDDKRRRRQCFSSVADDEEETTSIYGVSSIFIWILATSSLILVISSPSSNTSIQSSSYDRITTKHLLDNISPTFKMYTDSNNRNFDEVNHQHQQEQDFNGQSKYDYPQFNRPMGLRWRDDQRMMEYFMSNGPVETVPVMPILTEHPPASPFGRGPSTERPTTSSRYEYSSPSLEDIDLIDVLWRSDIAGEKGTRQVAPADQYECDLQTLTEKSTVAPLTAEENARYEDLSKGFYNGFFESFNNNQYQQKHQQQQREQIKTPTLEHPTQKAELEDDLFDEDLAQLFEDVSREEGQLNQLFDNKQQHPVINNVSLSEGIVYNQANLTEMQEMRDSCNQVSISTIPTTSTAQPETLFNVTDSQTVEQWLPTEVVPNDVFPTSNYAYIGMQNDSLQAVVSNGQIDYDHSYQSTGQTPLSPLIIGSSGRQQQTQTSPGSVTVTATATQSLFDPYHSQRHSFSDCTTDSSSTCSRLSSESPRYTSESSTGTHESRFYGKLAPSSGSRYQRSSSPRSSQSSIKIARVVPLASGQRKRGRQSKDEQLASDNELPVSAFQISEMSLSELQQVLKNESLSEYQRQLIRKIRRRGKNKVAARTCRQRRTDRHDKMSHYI
In kind it is functional.

The next assay is described as follows: cells. It counts as functional.

The source made the active and inactive calls. Where only a bound is given, the exact number is not on record here.

The term AC50 denotes the concentration giving half of the maximal activity seen. What is called EC50 is the concentration that produces a half-maximal response.
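Wherever IC50 Mean is given: confirmatory dose-response retesting of NadD inhibitor hits first found in an ultra-high-throughput screen.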

T1 sequence (P65502 whole entry): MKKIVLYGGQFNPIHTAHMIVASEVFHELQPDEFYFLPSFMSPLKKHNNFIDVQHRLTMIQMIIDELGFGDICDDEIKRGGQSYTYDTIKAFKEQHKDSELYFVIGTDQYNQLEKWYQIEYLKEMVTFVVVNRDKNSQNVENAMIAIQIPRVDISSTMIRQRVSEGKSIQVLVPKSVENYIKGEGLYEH
Luciferin 4-monooxygenase, sequence (P08659 whole entry): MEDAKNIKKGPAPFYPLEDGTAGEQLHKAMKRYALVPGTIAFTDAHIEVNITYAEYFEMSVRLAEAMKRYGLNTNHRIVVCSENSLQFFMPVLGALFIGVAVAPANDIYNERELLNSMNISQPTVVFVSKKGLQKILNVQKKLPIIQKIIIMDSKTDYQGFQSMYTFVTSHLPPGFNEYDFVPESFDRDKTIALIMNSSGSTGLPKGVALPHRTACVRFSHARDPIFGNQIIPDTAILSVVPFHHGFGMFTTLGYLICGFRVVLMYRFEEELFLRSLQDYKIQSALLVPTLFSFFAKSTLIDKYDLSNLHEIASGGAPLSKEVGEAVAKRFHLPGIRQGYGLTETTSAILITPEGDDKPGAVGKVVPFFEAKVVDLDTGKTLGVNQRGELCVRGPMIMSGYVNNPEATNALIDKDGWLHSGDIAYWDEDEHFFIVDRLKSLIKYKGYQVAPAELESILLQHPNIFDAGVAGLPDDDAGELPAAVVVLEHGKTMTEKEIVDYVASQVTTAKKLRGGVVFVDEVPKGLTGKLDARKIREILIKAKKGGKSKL

As to `Cc1ccc(C)c(NC(=O)C(OC(=O)c2ccc(NC(=O)CC#N)cc2)c2ccccc2)c1` (stereo not given), the IC50 in assay [1] is 11.4 µM (active); in assay [2], 42.7 µM (active).

For `COc1cccc(/C=C2\CCC(C3CCCC3)C2=O)c1` (stereo not given), the IC50 is 27.3 µM (active) at Caspase-3, 11.8 µM (active) in assay [3], 25.5 µM (active) in assay [4] and 33.4 µM (active) in assay [5].

Regarding `Cc1ccc(NC(=O)CSc2ccc3c(c2)OCCO3)c(O)c1`, the AC50 in [6] is 0.343 µM (active); in assay [7] it was 7.27 µM (active); in assay [8] it was 0.525 µM (active).

Take `CCc1c(C)nc2ncnn2c1NCCc1ccc(Cl)cc1`: the AC50 in assay [6] is 2.17 µM (active); in assay [7], 60.2 µM (active); in [8], 3.82 µM (active).

`Cc1ccc(F)cc1CNC(=O)c1cc(COc2ccc3ncccc3c2)on1`: in [9], the CC50 was > 40 µM (active). Further, the AC50 was 4.88 µM (active) in assay [6], 6.33 µM (active) in assay [7] and 4.3 µM (active) in assay [8].

Turning to `Cc1cccc(C(=O)Nc2cccc(C(=O)N/N=C/c3ccc4c(c3)OCO4)c2)c1`, the IC50 was 13 µM (active) at Caspase-3, 14.2 µM (active) in [3], 15.2 µM (active) in assay [4] and 35 µM (active) in [5].

As for `O=c1c2ccccc2nnn1COc1cccc(Cl)c1`, the IC50 at Caspase-3 is 16.1 µM (active); in assay [3], 6.41 µM (active); in [4], 34 µM (active); in assay [5] it was 6.62 µM (active).

On to `CCc1cccc2c(/C=N/NC(=O)c3cccc(S(=O)(=O)Nc4ccccc4Cl)c3)c[nH]c12`, for which the IC50 was 11.2 µM (active) in assay [1] and 31.2 µM (active) in assay [2].

Consider `COc1ccc2c(c1)sc1nc(-c3ccccc3)cn12`, for which the EC50 in assay [10] is 0.681 µM (active); in assay [11], 0.388 µM (active); in [12] it was 2.23 µM (active); in assay [13], 0.299 µM (active); in [14], 0.669 µM (active); in assay [15] it was 4.62 µM (active). In addition, the AC50 in [6] was 7.37 µM (active); in [7] it was 42.3 µM (active); in assay [8] it was 13.2 µM (active). For the same compound, the IC50 at Protein skinhead-1 is > 100 µM (inactive).

For the compound `O=C(COC(=O)c1ccc(Oc2ccccc2)cc1)Nc1nnc(-c2ccccc2)o1`, the IC50 in assay [1] is 9.58 µM (active); in [2], 23.8 µM (active).

`COc1ccc2ccccc2c1/C=N/NC(=O)c1nnn(-c2nonc2N)c1C(C)C`: the IC50 in assay [1] is 38 µM (active); in assay [2] it was 78 µM (active).

For the compound `COc1ccc(OC(=O)c2cc3ccccc3o2)cc1`, the IC50 was 33 µM (active) at Caspase-3; 5.34 µM (active) in assay [3]; > 100 µM (inactive) in assay [4]; > 100 µM (inactive) in [5]; 16.6 µM (active) in “cells”.

The record behind these values is ChEMBL document CHEMBL1201862, “PubChem BioAssay data set” (2004).
